Data published in patent US8124775B2, “Chemical compound and its use” (Bayer Pharma Aktiengesellschaft, priority 2004, dated 2012).
Where two headings read alike, the source gives them in different places.

Assays:
CETP [1] = target: T1, CETP (Homo sapiens, UniProt P11597); assay: CETP fluorescence test with enriched CETP; assay type: biochemical; set-up: tissue Sigma P9523; host or cells: human plasma; conditions: section (b), Example 1 = formula (Ib); enriched CETP from human plasma, 37° C., 4 hours
T1 sequence (P11597 18-493): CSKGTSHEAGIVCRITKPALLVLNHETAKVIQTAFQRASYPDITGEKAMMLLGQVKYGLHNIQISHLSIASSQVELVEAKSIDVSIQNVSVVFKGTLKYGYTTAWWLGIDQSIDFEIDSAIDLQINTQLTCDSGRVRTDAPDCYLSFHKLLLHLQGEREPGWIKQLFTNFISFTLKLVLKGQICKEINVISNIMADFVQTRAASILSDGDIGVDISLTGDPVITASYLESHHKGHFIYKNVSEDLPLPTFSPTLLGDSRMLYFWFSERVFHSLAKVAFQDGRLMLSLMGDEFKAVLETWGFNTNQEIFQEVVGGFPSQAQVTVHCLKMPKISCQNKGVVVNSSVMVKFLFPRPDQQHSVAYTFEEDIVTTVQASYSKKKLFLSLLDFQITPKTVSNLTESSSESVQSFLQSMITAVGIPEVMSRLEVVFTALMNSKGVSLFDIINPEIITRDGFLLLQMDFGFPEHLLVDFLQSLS
Experimental: CETP is obtained in partially purified form from human plasma by differential centrifugation and column chromatography and used for the test. To this end, human plasma is adjusted to a density of 1.21 g per ml using NaBr and centrifuged at 4° C. at 50 000 rpm for 18 h. The bottom fraction (d>1.21 g/ml) is applied to a Sephadex® Phenyl-Sepharose 4B (Pharmacia) column, washed with 0.15 M NaCl/0.001 M tris-HCl pH 7.4 and then eluted with distilled water. The CETP-active fractions are pooled, dialysed against 50 mM sodium acetate pH 4.5 and applied to a CM-Sepharose® column (Pharmacia). The mixture is then eluted using a linear gradient (0-1 M NaCl). The pooled CETP fractions are dialysed against 10 mM tris/HCl pH 7.4 and then further purified by chromatography on a Mono Q® column (Pharmacia).
Measurement of the CETP-catalysed transfer of a fluorescent cholesterol ester between liposomes [modified according to the procedure of Bisgaier et al., J. Lipid Res. 34, 1625 (1993)]: […]
The change in the fluorescence at 485/535 nm is a measure of the CE transfer; the inhibition of the transfer in comparison to the control batch without substance is determined. […]

CETP [2] = target: T1, CETP; assay: CETP fluorescence test with human plasma; assay type: biochemical; set-up: tissue Sigma P9523; host or cells: human plasma; conditions: section (b), Example 1 = formula (Ib), 37° C., 24 h
Experimental: For the production of the donor liposomes, 1 mg of cholesteryl 4,4-difluoro-5,7-dimethyl-4-bora-3a,4a-diaza-s-indacene-3-dodecanoate (cholesteryl BODIPY® FL C12, Molecular Probes) is dissolved in 600 μl of dioxane with 5.35 mg of triolein and 6.67 mg of phosphatidylcholine with gentle warming in an ultrasonic bath and this solution is added very slowly with ultrasonication to 63 ml of 50 mM tris/HCl, 150 mM NaCl, 2 mM EDTA buffer pH 7.3 at room temperature. The suspension is then ultrasonicated under an N2 atmosphere for 30 minutes in the Branson ultrasonic bath at about 50 watts, the temperature being kept at about 20° C.
6 μl (12% v/v) of donor liposomes and 1 μl (2% v/v) of a solution of the substance to be investigated in DMSO are added to 42 μl (86% v/v) of human plasma (Sigma P9523), and the mixture is incubated at 37° C. for 24 h.
The change in the fluorescence at 510/520 nm (gap width 2.5 nm) is a measure of the CE transfer; the inhibition of the transfer in comparison to the control batch without substance is determined. […]

CETP [3] = target: T1, CETP; assay: Ex vivo activity on transgenic hCETP mice (serum CETP activity); assay type: in vivo; set-up: from tissue; host or cells: serum of transgenic hCETP mice (Dinchuk et al.); conditions: mouse, po
Experimental: 10 μl of buffer and 2 μl of serum are added to 80 μl of test mix, and the mixture is incubated at 37° C. for 4 h.
The change in the fluorescence at 485/535 nm is a measure for the CE transfer; the inhibition of the transfer is comparison to the control batch without substance is determined.
To test for CETP-inhibitory activity, the substances are administered orally using a stomach tube to transgenic hCETP mice bred in-house [Dinchuk et al. BBA 1295-301 (1995)]. To this end, male animals are randomly assigned to groups having an equal number of animals, as a rule n=4, one day before the start of the experiment. Before administration of the substance, blood is taken from each mouse by puncture of the retro-orbital venous plexus for the determination of its basal CETP activity in the serum (T1). The test substance is then administered to the animals using the stomach tube. At specific times after administration of the test substance, blood is taken from the animals by puncture a second time (T2), in general 16 or 24 h after substance administration, but if appropriate this can also be carried out at another time.
In order to be able to assess the inhibitory activity of a substance, for each time, i.e. 16 or 24 hours, a corresponding control group is employed whose animals only receive the formulating agent without substance. In the control animals, the second blood sampling per animal is carried out as in the substance-treated animals in order to be able to determine the change in the CETP activity without inhibitor over the corresponding experimental time interval (16 or 24 h).
After termination of the clotting, the blood samples are centrifuged and the serum is removed by pipette. For the determination of the CETP activity, the cholesteryl ester transport over 4 h is determined. To this end, in general 2 μl of serum are employed in the test batch and the test is carried out as described under B-I.2.3.
The differences in the cholesteryl ester transport [pM CE/h (T2)−pM CE/h (T1)] are calculated for each animal and averaged in the groups. A substance which at one of the times reduces the cholesteryl ester transport by >20% is regarded as active.
The change in the fluorescence at 485/535 nm is a measure for the CE transfer; the inhibition of the transfer in comparison to the control batch without substance is determined.
To test for CETP-inhibitory activity, the substances are administered orally using a stomach tube to transgenic hCETP mice bred in-house [Dinchuk et al., BBA, 1295-1301 (1995)]. To this end, male animals are randomly assigned to groups having an equal number of animals, as a rule n=4, one day before the start of the experiment. […]

CETP [4] = target: T1, CETP; assay: CETP-SPA test; assay type: biochemical; set-up: are added to 42 μl (86% v/v) of human plasma (Sigma P9523); tissue Sigma P9523; host or cells: human plasma; conditions: section (b), Example 1 = formula (Ib); 37° C., 18 h
Experimental: 50 ml of fresh human EDTA plasma is adjusted to a density of 1.12 using NaBr and centrifuged at 4° C. in a Ty 65 rotor at 50 000 rpm for 18 h. The upper phase is used for the obtainment of cold LDL. […]
For testing of the CETP activity, the transfer of ^3H-cholesterol ester from human HD lipoproteins to biotinylated LD lipoproteins is measured. The reaction is ended by addition of streptavidin-SPA® beads (Amersham) and the transferred radioactivity is determined directly in a liquid scintillation counter. […]

IC50 (CETP [1])	IC50 (CETP [2])	SMILES	inhibition at 3 mg/kg (CETP [3]; section (a), Example 1 = formula (Ia), 16 h after administration, read-out: % inhibition at 3 mg/kg, 16 h)	inhibition at 3 mg/kg (CETP [3]; section (a), Example 1 = formula (Ia), 24 h after administration, read-out: % inhibition at 3 mg/kg, 24 h)	inhibition at 3 mg/kg (CETP [3]; section (b), Example 1 = formula (Ib), 16 h after administration, read-out: % inhibition at 3 mg/kg, 16 h)	inhibition at 3 mg/kg (CETP [3]; section (b), Example 1 = formula (Ib), 24 h after administration, read-out: % inhibition at 3 mg/kg, 24 h)	IC50 (CETP [4])
25 nM	84 nM	CC(C)c1nc2c(c(C3CCCC3)c1[C@@H](F)c1ccc(C(F)(F)F)cc1)[C@@H](O)CC(C)(C)C2 [Example 1]	–	–	–	–	–
–	–	CC1(C)Cc2nc(C3CCCC3)c([C@@H](F)c3ccc(C(F)(F)F)cc3)c(C3CCCCC3)c2[C@@H](O)C1 [Example 1]	50%	24%	49%	39%	12 nM
